Like-named read-outs stand apart in the source and are kept apart here.
What was measured:
HCC1806 cells = test: Assay I of bioactive molecules on cell viability in vitro (CCK8); type: cell-based; settings: Homo sapiens, HCC1806, 72 h; 7500 cells/well, 3 days; read-out: EC50(nM), killing of HCC1806 cells
Experimental: (§1) Tumor cells were first cultured; the bioactive molecules of the present disclosure were co-cultured with tumor cells, and then CCK8 reagent (Dojindo Laboratories (Shanghai), Cat: CK04, Lot: JJ744) was added, and the activity of dehydrogenase in mitochondria was detected by reading (detection wavelength 450 nm) on a microplate reader (manufacturer: Molecular Devices, model: SpectraMax M2), to evaluate the inhibitory effect of bioactive molecules on cell proliferation.
(§2) In vitro cell viability assay method: bioactive molecules (12 concentration gradients) were diluted with corresponding assay medium (containing 2% FBS). The tumor cells were digested by conventional methods using trypsin, and cells in tube were collected and counted, then resuspended in the corresponding assay media (containing 2% FBS). The diluted bioactive molecules were added to a 96-well plate, followed by the cells. Then, 20 μL of CCK8 reagent was added to each well, and the reaction was carried out for 4 h, then the plate was read on a microplate reader (detection wavelength was 450 nm). The experimental results are shown in Tables 6.1, 6.2, 6.3, 6.4, and 6.5.

LS174T cells = test: as above; type: cell-based; settings: Homo sapiens, read-out: EC50(nM), killing of LS174T cells
Experimental: as §1, §2

NCl-H322M cells = test: as above; type: cell-based; settings: Homo sapiens, read-out: EC50(nM), killing of NCl-H322M cells
Experimental: as §1, §2

PANC-1 cells = test: as above; type: cell-based; settings: Homo sapiens, read-out: EC50(nM), killing of PANC-1 cells
Experimental: as §1, §2

A431 = test: Assay II of bioactive molecules on cell viability in vitro (CCK8); type: cell-based; settings: Homo sapiens, A-431; CCK8, 3-4 days
Experimental: as §1, with “Tumor cells NUCG-4, PC-9, HT29, NCI-H358, KYSE520, A431 and A549 were first” for “Tumor cells were first”, “bioactive molecules or fragments of the” for “bioactive molecules of the”
(§3) In vitro cell viability assay method: the tumor cells were digested by conventional methods using trypsin, and cells in tube were collected and counted, and then resuspended in the corresponding assay media (containing 2% FBS), which was added to a 96-well plate at 5000-10000 cells/well. Bioactive molecules were diluted with DMSO, and then 100 μL was added to a 96-well plate, the initial concentration was 10 μM, followed by 3-fold serial dilution (12 concentration gradients). The plate was incubated for 3-4 days at 37° C. under 5% CO2. Then, 20 μL of CCK8 reagent was added to each well, and the reaction was carried out for 2-6 h. The plate was read on a microplate reader (detection wavelength was 450 nm).

A549 = test: as above; type: cell-based; settings: Homo sapiens, CCK8, 3-4 days
Experimental: as §1, with “Tumor cells NUCG-4, PC-9, HT29, NCI-H358, KYSE520, A431 and A549 were first” for “Tumor cells were first”, “bioactive molecules or fragments of the” for “bioactive molecules of the”
as §3

HT29 = test: as above; type: cell-based; settings: Homo sapiens, HT-29; CCK8, 3-4 days
Experimental: as §1, with “Tumor cells NUCG-4, PC-9, HT29, NCI-H358, KYSE520, A431 and A549 were first” for “Tumor cells were first”, “bioactive molecules or fragments of the” for “bioactive molecules of the”
as §3

NCI-H358 = test: as above; type: cell-based; settings: Homo sapiens, CCK8, 3-4 days
Experimental: as §1, with “Tumor cells NUCG-4, PC-9, HT29, NCI-H358, KYSE520, A431 and A549 were first” for “Tumor cells were first”, “bioactive molecules or fragments of the” for “bioactive molecules of the”
as §3

NUCG-4 = test: as above; type: cell-based; settings: CCK8, 3-4 days
Experimental: as §1, with “Tumor cells NUCG-4, PC-9, HT29, NCI-H358, KYSE520, A431 and A549 were first” for “Tumor cells were first”, “bioactive molecules or fragments of the” for “bioactive molecules of the”
as §3

PC-9 = test: as above; type: cell-based; settings: Homo sapiens, CCK8, 3-4 days
Experimental: as §1, with “Tumor cells NUCG-4, PC-9, HT29, NCI-H358, KYSE520, A431 and A549 were first” for “Tumor cells were first”, “bioactive molecules or fragments of the” for “bioactive molecules of the”
as §3

HT29 cells [1] = test: Assay III of bioactive molecules on cell viability in vitro (CCK8); type: cell-based; settings: Homo sapiens, HT-29; CCK8, 3-4 days (Assay III); read-out: EC50(nM), killing of HT29 cells
Experimental: Tumor cells HT29 (having a same source as the above) were first cultured. The bioactive molecules or fragments of the present disclosure were co-cultured with tumor cells, and then CCK8 reagent (Dojindo Laboratories (Shanghai), Cat: CK04, Lot: JJ744) was added, and the activity of dehydrogenase in mitochondria was detected by reading (detection wavelength 450 nm) on a microplate reader (manufacturer: Molecular Devices, model: SpectraMax M2), to evaluate the inhibitory effect of bioactive molecules on cell proliferation.
as §3, with “then” for “then 100 μL was”, “plate at 100 μL,” for “plate,”, “[…],” for “10 μM,”

[2] = human plasma 37° C., ADC 200 μg/mL, A1.9 released from B7H3-ADC-07(DAR8), DXD from B7H3-C1-ADC-21(DAR4)
Experimental: The appropriate concentration of internal standard stock solution was prepared with DMSO, and then acetonitrile or other reagents were used to prepare the appropriate concentration of the internal standard-containing precipitant.
Incubation of sample: the bacteriostatic agent ProClin was added to the plasma of each genera (human, cynomolgus monkey, ICR mouse) and PBS containing 1% BSA, and the final concentration of ProClin was 0.1%, Sterile operations were adopted. 40 μL working solution of test substance and 360 μL of human plasma were mixed to prepare 200 μg/mL of incubation sample. The plate was sealed with a film, and then incubated at 37° C. under 5% CO2 in an incubator, with a shaking speed of 80 times/mm. At 0 h, 4 h, 24 h, 2 d, 3 d, 7 d, 10 d, 14 d, 17 d, 21 d and 28 d, 20 μL of plasma sample was transferred, to which was added 200 μL of precipitant (containing internal standard), and completely mixed to precipitate the proteins.
All samples were subject to protein precipitating, and then centrifuged to collect the supernatant, which was diluted with water, and analyzed by LC-MS/MS.

HT29 cells [3] = test: Assay I of bioactive molecules on cell viability in vitro (CCK8); type: cell-based; settings: Homo sapiens, HT-29, CCK8; read-out: EC50(nM), killing of HT29 cells
Experimental: as §1, §2

NCl-H358 cells = test: as above; type: cell-based; settings: Homo sapiens, read-out: EC50(nM), killing of NCl-H358 cells
Experimental: as §1, §2

[4] = cited from earlier work

## CC[C@@]1(O)C(=O)OCc2c1cc1n(c2=O)Cc2c-1nc1cc(F)c(C)c3c1c2[C@@H](NC(=O)CO)CC3 [DXD, DXd, reference compound]
HCC1806 cells
  EC50: 37 nM
LS174T cells
  EC50: 82 nM
NCl-H322M cells
  EC50: 76.9 nM
PANC-1 cells
  EC50: 966 nM
A431
  EC50: 25.1 nM
A549
  EC50: 262 nM
HT29
  EC50: 210 nM
NCI-H358
  EC50: 262 nM
NUCG-4
  EC50: 43.3 nM
PC-9
  EC50: 16.7 nM
HT29 cells [1]
  EC50: 22.9 nM
[2]; day 0
  Release ratio (%): 0.348%
[2]; day 0.17
  Release ratio (%): 1.786%
[2]; day 1
  Release ratio (%): 2.765%
[2]; day 2
  Release ratio (%): 3.603%
[2]; day 3
  Release ratio (%): 3.763%
[2]; day 7
  Release ratio (%): 4.116%
[2]; day 10
  Release ratio (%): 5.126%
[2]; day 14
  Release ratio (%): 5.786%
[2]; day 17
  Release ratio (%): 6.446%
[2]; day 21
  Release ratio (%): 7.494%
[2]; day 28
  Release ratio (%): 12.659%

## CCCNCCc1c2c(nc3cc4c(cc13)OCO4)-c1cc3c(c(=O)n1C2)COC(=O)[C@]3(O)CC [Example A1.15a, (S)-7-ethyl-7-hydroxy-14-(2-(n-propylamino)ethyl)-10,13-dihydro-11H-[1,3]dioxolo[4,5-g]pyrano[3′,4′:6,7]indolizino[1,2-b]quinolin-8,11(7H)-dione]
HT29 cells [3]
  EC50: 3.57 nM
LS174T cells
  EC50: 19.5 nM
NCl-H358 cells
  EC50: 3.88 nM

## CCCN(CCc1c2c(nc3cc4c(cc13)OCO4)-c1cc3c(c(=O)n1C2)COC(=O)[C@]3(O)CC)C(=O)CO [Example A1.15b, (S)—N-(2-(7-ethyl-7-hydroxy-8,11-dioxo-7,8,11,13-tetrahydro-10H-[1,3]dioxolo[4,5-g]pyrano[3′,4′:6,7]indolizino[1,2-b]quinolin-14-yl)ethyl)-2-hydroxy-N-n-propylacetamide]
HT29 cells [3]
  EC50: 47.5 nM
LS174T cells
  EC50: 44.6 nM

## CC[C@@]1(O)C(=O)OCc2c1cc1n(c2=O)Cc2c-1nc1cc3c(cc1c2-c1ccc(NC(=O)CN)cc1)OCO3 [Example B1.9, (S)-2-amino-N-(4-(7-ethyl-7-hydroxy-8,11-dioxo-7,8,11,13-tetrahydro-10H-[1,3]dioxolo[4,5-g]pyrano[3′,4′:6,7]indolizino[1,2-b]quinolin-14-yl)phenyl)acetamide]
HT29 cells [1]
  EC50: 262 nM

## CC[C@@]1(O)C(=O)OCc2c1cc1n(c2=O)Cc2c-1nc1cc(F)c(C)cc1c2CCCOCNC(=O)CN [Example B1.12, (S)-2-amino-N-((4-(4-ethyl-8-fluoro-4-hydroxy-9-methyl-3,14-dioxo-3,4,12,14-tetrahydro-1H-pyrano[3′,4′:6,7]indolizino[1,2-b]quinolin-11-yl)propoxy)methyl)acetamide]
HT29 cells [1]
  EC50: 85.9 nM

## CC[C@@]1(O)C(=O)OCc2c1cc1n(c2=O)Cc2c-1nc1cc3c(cc1c2CCCOCNC(=O)CN)OCO3 [Example B1.14, (S)-2-amino-N-((3-(7-ethyl-7-hydroxy-8,11-dioxo-7,8,11,13-tetrahydro-10H-[1,3]dioxolo[4,5-g]pyrano[3′,4′:6,7]indolizino[1,2-b]quinolin-14-yl)propoxy)methyl)acetamide]
A431
  EC50: 68 nM
A549
  EC50: 252 nM
HT29
  EC50: 368 nM
NCI-H358
  EC50: 581 nM
NUCG-4
  EC50: 185 nM
PC-9
  EC50: 34.3 nM

## CC[C@@]1(O)C(=O)OCc2c1cc1n(c2=O)Cc2c-1nc1cc(F)c(C)cc1c2/C=C/COCNC(=O)CN [Example B1.17, (S,E)-2-amino-N-(((3-(4-ethyl-8-fluoro-4-hydroxy-9-methyl-3,14-oxo-3,4,12,14-tetrahydro-1H-pyrano[3′,4′:6,7]indolizino[1,2-b]quinolin-11-yl)allyl)oxy)methyl)acetamide]
HT29 cells [1]
  EC50: 205 nM

## Trodelvy
[4]
  plasma half-life: less than 24 hours

Source: patent US20240108745A1, “BIOACTIVE SUBSTANCE CONJUGATE, PREPARATION METHOD THEREFOR AND USE THEREOF” (MEDILINK THERAPEUTICS (SUZHOU) CO., LTD., priority 2021, published 2024)
